# Test results published in US4257941A, “Polycyclic nitrogen-containing compounds” (BASF Aktiengesellschaft, priority 1976, dated 1981).
# Where a name gives a salt, the structure may show the parent alone.
# Tested on: lawns
# Assay: Long-term action on lawns (Example 14)
# Assay type: in vivo
# Conditions: for First cutting, green weight relative / First cutting, growth height relative / Second cutting, green weight relative / Second cutting, growth height relative / Third cutting, green weight relative: control 100
SMILES,"First cutting, green weight (0.5 kg/ha)","First cutting, growth height (0.5 kg/ha)","Second cutting, green weight (0.5 kg/ha)","Second cutting, growth height (0.5 kg/ha)","Third cutting, green weight (0.5 kg/ha)","First cutting, green weight relative (0.5 kg/ha)","First cutting, growth height relative (0.5 kg/ha)","Second cutting, green weight relative (0.5 kg/ha)","Second cutting, growth height relative (0.5 kg/ha)","Third cutting, green weight relative (0.5 kg/ha)","First cutting, green weight (1.0 kg/ha)","First cutting, growth height (1.0 kg/ha)","Second cutting, green weight (1.0 kg/ha)","Second cutting, growth height (1.0 kg/ha)","Third cutting, green weight (1.0 kg/ha)","First cutting, green weight relative (1.0 kg/ha)","First cutting, growth height relative (1.0 kg/ha)","Second cutting, green weight relative (1.0 kg/ha)","Second cutting, growth height relative (1.0 kg/ha)","Third cutting, green weight relative (1.0 kg/ha)",further results
Brc1ccc(N2N=NC3C4CC(C5N=NC45)C32)cc1 (stereo not shown) [drawing 380],25.5 g,14.5 cm,27.8 g,14.5 cm,16.5 g,72.2,80.6,104.1,98.6,108.6,24.4 g,12.5 cm,25.1 g,11.5 cm,16.5 g,69.1,69.5,94.0,78.2,108.6,"First cutting, green weight (2.0 kg/ha): 22.0 g; First cutting, growth height (2.0 kg/ha): 11.0 cm; Second cutting, green weight (2.0 kg/ha): 18.7 g; Second cutting, growth height (2.0 kg/ha): 8.0 cm; Third cutting, green weight (2.0 kg/ha): 14.0 g; First cutting, green weight relative (2.0 kg/ha): 62.3; First cutting, growth height relative (2.0 kg/ha): 61.1; Second cutting, green weight relative (2.0 kg/ha): 70.0; Second cutting, growth height relative (2.0 kg/ha): 54.4; Third cutting, green weight relative (2.0 kg/ha): 92.1; First cutting, green weight (4.0 kg/ha): 16.5 g; First cutting, growth height (4.0 kg/ha): 10.5 cm; Second cutting, green weight (4.0 kg/ha): 13.2 g; Second cutting, growth height (4.0 kg/ha): 7.0 cm; Third cutting, green weight (4.0 kg/ha): 10.3 g; First cutting, green weight relative (4.0 kg/ha): 46.7; First cutting, growth height relative (4.0 kg/ha): 58.3; Second cutting, green weight relative (4.0 kg/ha): 49.4; Second cutting, growth height relative (4.0 kg/ha): 47.6; Third cutting, green weight relative (4.0 kg/ha): 67.8"
"CC(=O)Nc1ccc(C)c(NS(=O)(=O)C(F)(F)F)c1 [S, diethanolamine salt of 3-trifluoromethylsulfonamido-p-acetotoluidide, reference compound]",26.7 g,14.5 cm,27.3 g,14.0 cm,15.6 g,75.6,80.6,102.2,95.2,102.6,23.0 g,13.0 cm,27.6 g,12.5 cm,15.0 g,65.2,72.2,103.4,85.0,98.6,"First cutting, green weight (2.0 kg/ha): 12.6 g; First cutting, growth height (2.0 kg/ha): 10.5 cm; Second cutting, green weight (2.0 kg/ha): 20.1 g; Second cutting, growth height (2.0 kg/ha): 9.5 cm; Third cutting, green weight (2.0 kg/ha): 13.7 g; First cutting, green weight relative (2.0 kg/ha): 35.7; First cutting, growth height relative (2.0 kg/ha): 58.3; Second cutting, green weight relative (2.0 kg/ha): 75.3; Second cutting, growth height relative (2.0 kg/ha): 64.6; Third cutting, green weight relative (2.0 kg/ha): 90.1; First cutting, green weight (4.0 kg/ha): 9.4 g; First cutting, growth height (4.0 kg/ha): 9.0 cm; Second cutting, green weight (4.0 kg/ha): 9.6 g; Second cutting, growth height (4.0 kg/ha): 4.5 cm; Third cutting, green weight (4.0 kg/ha): 10.4 g; First cutting, green weight relative (4.0 kg/ha): 26.6; First cutting, growth height relative (4.0 kg/ha): 50.0; Second cutting, green weight relative (4.0 kg/ha): 36.0; Second cutting, growth height relative (4.0 kg/ha): 30.6; Third cutting, green weight relative (4.0 kg/ha): 68.4"
Clc1ccc(N2N=NC3C4CC(C5NNC45)C32)cc1 (stereo not shown) [drawing 381],28.8 g,16.5 cm,27.2 g,12.5 cm,17.2 g,81.6,91.7,101.9,85.0,113.2,21.3 g,13.5 cm,20.5 g,9.0 cm,15.1 g,60.3,75.0,76.8,61.2,99.3,"First cutting, green weight (2.0 kg/ha): 17.2 g; First cutting, growth height (2.0 kg/ha): 11.5 cm; Second cutting, green weight (2.0 kg/ha): 16.2 g; Second cutting, growth height (2.0 kg/ha): 7.5 cm; Third cutting, green weight (2.0 kg/ha): 12.5 g; First cutting, green weight relative (2.0 kg/ha): 48.7; First cutting, growth height relative (2.0 kg/ha): 63.9; Second cutting, green weight relative (2.0 kg/ha): 60.7; Second cutting, growth height relative (2.0 kg/ha): 51.0; Third cutting, green weight relative (2.0 kg/ha): 82.2; First cutting, green weight (4.0 kg/ha): 13.9 g; First cutting, growth height (4.0 kg/ha): 9.0 cm; Second cutting, green weight (4.0 kg/ha): 10.2 g; Second cutting, growth height (4.0 kg/ha): 5.0 cm; Third cutting, green weight (4.0 kg/ha): 9.8 g; First cutting, green weight relative (4.0 kg/ha): 39.4; First cutting, growth height relative (4.0 kg/ha): 50.0; Second cutting, green weight relative (4.0 kg/ha): 38.2; Second cutting, growth height relative (4.0 kg/ha): 34.0; Third cutting, green weight relative (4.0 kg/ha): 64.5"
Fc1ccc(N2N=NC3C4CC(C5N=NC45)C32)cc1 (stereo not shown),23.1 g,15.0 cm,21.8 g,10.0 cm,14.6 g,65.4,83.3,81.6,68.0,96.1,20.5 g,12.5 cm,21.4 g,9.0 cm,13.5 g,58.1,69.5,80.1,61.2,88.8,"First cutting, green weight (2.0 kg/ha): 9.8 g; First cutting, growth height (2.0 kg/ha): 7.5 cm; Second cutting, green weight (2.0 kg/ha): 10.1 g; Second cutting, growth height (2.0 kg/ha): 5.0 cm; Third cutting, green weight (2.0 kg/ha): 9.5 g; First cutting, green weight relative (2.0 kg/ha): 27.8; First cutting, growth height relative (2.0 kg/ha): 41.7; Second cutting, green weight relative (2.0 kg/ha): 37.8; Second cutting, growth height relative (2.0 kg/ha): 34.0; Third cutting, green weight relative (2.0 kg/ha): 62.5; First cutting, green weight (4.0 kg/ha): 7.9 g; First cutting, growth height (4.0 kg/ha): 6.5 cm; Second cutting, green weight (4.0 kg/ha): 7.1 g; Second cutting, growth height (4.0 kg/ha): 2.0 cm; Third cutting, green weight (4.0 kg/ha): 7.9 g; First cutting, green weight relative (4.0 kg/ha): 22.4; First cutting, growth height relative (4.0 kg/ha): 36.1; Second cutting, green weight relative (4.0 kg/ha): 26.6; Second cutting, growth height relative (4.0 kg/ha): 13.6; Third cutting, green weight relative (4.0 kg/ha): 52.0"
